Test results reported in PubChem BioAssay AID1996.
Converted amounts (≈) assume the structure as drawn.

Settings: buffer; pH 7.4; 200.0 µM
With `Cc1ccc(SCC(=O)OCC(=O)NC2CCCCCC2)cc1` the solubility kinetic was greater than 50.3 µg/mL. `CC(Sc1nnc(Cc2ccccc2)o1)C(=O)NC1(C#N)CCCCC1` (stereo not drawn) showed a solubility kinetic greater than 55.6 µg/mL. With `CC(NC(=O)CCCC1CCCCC1)c1ccc(S(N)(=O)=O)cc1` (stereo not drawn) the solubility kinetic was greater than 52.9 µg/mL. Work on `COC(=O)c1c(C)nsc1NC(=O)Oc1ccccc1` yielded a solubility kinetic of 2.7 µg/mL (≈ 9.24 µM). `COc1ccc(NC(=O)CC(C)CC(=O)NCc2ccc(F)cc2)c(OC)c1` (stereo not drawn) gave a solubility kinetic of 6.8 µg/mL (≈ 17.5 µM). With `CC(=O)c1cn(CC(=O)Nc2ccc(C)c(C)c2)c2ccccc12` the solubility kinetic was less than 0.3 µg/mL. Compound `O=c1[nH]c(SCc2ccc(Cl)cc2)nc2ccccc12` has a solubility kinetic of 0.8 µg/mL (≈ 2.64 µM). `CC1CCCCC1NC(=O)COC(=O)c1ccc2ccccc2n1` (stereo not drawn) showed a solubility kinetic of 7.1 µg/mL (≈ 21.8 µM). `Cc1ccc(N=Cc2c(O)n(C)c(=O)n(C)c2=O)cc1` gave a solubility kinetic of 6.1 µg/mL (≈ 22.3 µM). `CCCOC1CCCN(Cc2nc(-c3cnccn3)no2)C1` (stereo not drawn) gave a solubility kinetic of 41.3 µg/mL (≈ 136 µM). `Cc1cc(C(=O)NC2CCC(O)CC2)c(C)o1` (stereo not drawn) showed a solubility kinetic greater than 35.6 µg/mL. In the case of `S=C(NCc1ccccc1)NCc1cccc(Cl)c1`, the solubility kinetic is reported as 23.2 µg/mL (≈ 79.8 µM). `O=C(Nc1ccccc1-c1ccccc1)C1CCCC1` gave a solubility kinetic of 32.4 µg/mL (≈ 122 µM). `C=CCNC(=S)NNC(=O)c1ccncc1` gave a solubility kinetic greater than 35.4 µg/mL. Compound `CN(C)CCNS(=O)(=O)c1ccc2c3c(cccc13)C(=O)N2` has a solubility kinetic greater than 47.9 µg/mL. `CC(C)NC(=O)COc1cccc2ccccc12` gave a solubility kinetic of 31.8 µg/mL (≈ 131 µM). `COc1ccc(/C=C/C(=O)OCC(=O)N(C)CC(=O)Nc2ccc(C)cc2)c(OC)c1` showed a solubility kinetic of 4.4 µg/mL (≈ 10.3 µM). With `O=C(Cn1c(=O)oc2ccccc21)Nc1ccc(Br)cc1` the solubility kinetic was 2.1 µg/mL (≈ 6.05 µM). `CCCOc1ccc(C2=CSC3=NCCN23)cc1.Cl` gave a solubility kinetic of 37.4 µg/mL. Work on `O=C(OCC(=O)N(CCc1ccccc1)Cc1ccccc1)c1cccc(O)c1` yielded a solubility kinetic of 2.6 µg/mL (≈ 6.68 µM). Work on `OCCCc1cn(-c2ccccc2)c2ccccc12` yielded a solubility kinetic of 22.1 µg/mL (≈ 87.9 µM). Compound `O=C(CN1C(=O)c2ccccc2S1(=O)=O)NCc1ccco1` has a solubility kinetic greater than 48 µg/mL. For `CCN(C#N)c1nc(NC(C)C)nc(NC(C)(C)C)n1`, the solubility kinetic was 37 µg/mL (≈ 133 µM). In the case of `O=C(COC(=O)COc1ccccc1[N+](=O)[O-])NCc1ccc2c(c1)OCO2`, the solubility kinetic is reported as greater than 58.2 µg/mL. For `Cc1cccc(NC(=O)NC2CCCc3ccccc32)c1` (stereo not drawn), the solubility kinetic was 0.7 µg/mL (≈ 2.5 µM). For `O=c1[nH]c(COc2ccccc2)nc2ccccc12`, the solubility kinetic was 4.1 µg/mL (≈ 16.3 µM). Compound `Cc1nn(CC(=O)NC2CC2)c(C)c1S(=O)(=O)NC(C)(C)C` has a solubility kinetic greater than 49.3 µg/mL. Compound `CN(CCO)CC(O)CN(c1ccccc1)c1ccccc1.Cl` (stereo not drawn) has a solubility kinetic of 49.9 µg/mL. `O=C(Nc1ccccc1C(=O)Nc1ccncc1)c1ccccc1` showed a solubility kinetic of 6 µg/mL (≈ 18.9 µM). `C=CCn1c(N)cc(=O)nc1SCC(=O)Nc1ccccc1C(N)=O` showed a solubility kinetic of 49.9 µg/mL (≈ 139 µM). In the case of `CC(C)(C)S(=O)(=O)c1cnc(N2CCCCC2)nc1N`, the solubility kinetic is reported as greater than 44.8 µg/mL. With `CC(=O)c1ccc(OCC(=O)N2CCCC2c2ccc3c(c2)OCCCO3)cc1` (stereo not drawn) the solubility kinetic was 49.2 µg/mL (≈ 124 µM). With `COc1ccccc1OC(C)C(=O)Nc1ccc2c(c1)OCCO2` (stereo not drawn) the solubility kinetic was greater than 49.4 µg/mL. Work on `Cl.NOCC(=O)O` yielded a solubility kinetic greater than 16.4 µg/mL. `COc1cccc(Nc2nc(-c3sc(C)nc3C)cs2)c1` showed a solubility kinetic of 0.3 µg/mL (≈ 0.945 µM). `O=C(COC(=O)C1=COCCO1)Nc1ccc(Br)cc1Br` showed a solubility kinetic of 6.6 µg/mL (≈ 15.7 µM). `C[C@@H](C(=O)NC1CCCC1)N1C(=O)N2CCc3c([nH]c4ccccc34)[C@@]2(C)C1=O` showed a solubility kinetic of 48.7 µg/mL (≈ 123 µM). `NC(=O)CN1C(=O)NC2(CCCc3sccc32)C1=O` (stereo not drawn) showed a solubility kinetic greater than 41.9 µg/mL. Compound `COc1nc(-c2ccc(Cl)cc2Cl)nc2ccccc12` has a solubility kinetic of less than 0.3 µg/mL. Work on `Cc1cc(=O)[nH]c(SCC(=O)NCC2CCCCC2)c1C#N` yielded a solubility kinetic greater than 47.9 µg/mL. `O=C(NN=Cc1cc(Br)c(O)c(Br)c1)c1ccccc1NS(=O)(=O)c1cccs1` gave a solubility kinetic greater than 83.9 µg/mL. `Cc1noc(C)c1CC(=O)Nc1ccc2c(c1)OCO2` showed a solubility kinetic greater than 41.1 µg/mL. `CSc1cccc(NC(=O)CC2Oc3ccccc3NC2=O)c1` (stereo not drawn) showed a solubility kinetic of 1.8 µg/mL (≈ 5.48 µM). `Br.Cc1ccc(C(=O)Cn2c(=N)n(N)c3ccccc32)cc1` showed a solubility kinetic greater than 54.2 µg/mL. Compound `COc1ccc(OC)c(N/C(N)=N/c2nc(C)cc(C)n2)c1` has a solubility kinetic of 40.5 µg/mL (≈ 134 µM). Work on `COc1cccc(/C=C/C(=O)N2CCN(c3ccccn3)CC2)c1` yielded a solubility kinetic greater than 48.5 µg/mL. Compound `Cc1cc([N+](=O)[O-])c2ccccc2[n+]1[O-]` has a solubility kinetic greater than 30.6 µg/mL. In the case of `CC(NC(=O)COC(=O)c1ccc(S(=O)(=O)N2CCOCC2)cc1)c1ccccc1` (stereo not drawn), the solubility kinetic is reported as 13.2 µg/mL (≈ 30.5 µM). Compound `CC(NC(=O)COC(=O)CCC(=O)c1ccc(Cl)cc1)c1ccccc1` (stereo not drawn) has a solubility kinetic greater than 56.1 µg/mL. Work on `COc1ccc(C(=O)NCCNc2ccc([N+](=O)[O-])cc2)cc1` yielded a solubility kinetic of 5 µg/mL (≈ 15.9 µM). `COc1cc(C(=O)OCC(=O)NCC2CCCO2)cc(OC)c1OC` (stereo not drawn) showed a solubility kinetic greater than 53 µg/mL. For `C/C(=N\NC=O)c1ccncc1`, the solubility kinetic was greater than 24.5 µg/mL. `OC1(c2ccc(F)cc2)CCN(Cc2cccnc2)CC1` showed a solubility kinetic greater than 43 µg/mL. `CC(=O)c1ccc(S(=O)(=O)N2CCC3(CC2)OCCO3)cc1` showed a solubility kinetic greater than 48.8 µg/mL. For `CC1(c2cccc(Br)c2)NC(=O)N(CC(=O)Nc2ccc3c(c2)OCCO3)C1=O` (stereo not drawn), the solubility kinetic was 67.3 µg/mL (≈ 146 µM). In the case of `O=Cc1c[nH]c2ccc(C(=O)c3ccccc3)cc12`, the solubility kinetic is reported as 4.3 µg/mL (≈ 17.3 µM). Compound `CC(C)(C)c1ccc(S(=O)(=O)N2CCN(CC(O)CN3CCOCC3)CC2)cc1` (stereo not drawn) has a solubility kinetic greater than 63.8 µg/mL. Compound `Cc1cc(C)cc(Nc2ccc(C(=O)O)cc2[N+](=O)[O-])c1` has a solubility kinetic greater than 42.9 µg/mL. For `Cn1c(=O)n(Cc2ccccc2)c(=O)c2c1nc1n2CCN1Cc1ccco1`, the solubility kinetic was 51.8 µg/mL (≈ 137 µM). For `CCc1cccc(C)c1NC(=O)N(C)C1CCCCC1`, the solubility kinetic was 35.6 µg/mL (≈ 130 µM). Compound `CC(=O)Nc1ccc(S(=O)(=O)N2CCCC(C(=O)O)C2)cc1` (stereo not drawn) has a solubility kinetic greater than 49 µg/mL. `CC(=O)Nc1ccc(-n2c(C)ccc2-c2ccccc2)cc1` showed a solubility kinetic of 4.4 µg/mL (≈ 15.2 µM). `O=[N+]([O-])c1ccccc1OCCOc1ccccc1[N+](=O)[O-]` gave a solubility kinetic of less than 0.3 µg/mL. Compound `CC1(C)CC(=O)C2=C(C1)Nc1ccccc1S2` has a solubility kinetic of 3 µg/mL (≈ 12.2 µM). Work on `O=S1(=O)CCN(OCc2ccc(F)cc2Cl)CC1` yielded a solubility kinetic of 43.1 µg/mL (≈ 147 µM). `CCN(C(=O)COC(=O)C1=COCCO1)c1ccccc1` showed a solubility kinetic greater than 43.7 µg/mL. With `COc1cc(C(=O)OCC(=O)NC2CCCCC2)cc(OC)c1OC` the solubility kinetic was greater than 52.7 µg/mL. For `CCCCCCC(=O)c1c([O-])n(-c2ccc(OC)cc2)c(=O)[nH]c1=O.C[NH+](C)C`, the solubility kinetic was 44.5 µg/mL. In the case of `CC(=O)c1ccc(OC(C)C(=O)NC2CCCCC2C)cc1` (stereo not drawn), the solubility kinetic is reported as greater than 45.5 µg/mL. With `Cc1ccc2c(CN3CCN(Cc4ccccc4)CC3)cc(=O)oc2c1C` the solubility kinetic was 25.4 µg/mL (≈ 70.1 µM). `COc1ccc(Cl)cc1NC(=O)/C=C/C(=O)O` gave a solubility kinetic greater than 38.3 µg/mL. With `O=C(OCc1cc(=O)n2ccsc2n1)c1ccccc1NCCO` the solubility kinetic was greater than 51.8 µg/mL. `CC(C)C[C@H]1C(=O)N2CCCC2[C@]2(O)O[C@](NC(=O)[C@@H]3C=C4c5cccc6[nH]cc(c56)CC4N(C)C3)(C(C)C)C(=O)N12` (stereo partly drawn) showed a solubility kinetic of 24.1 µg/mL (≈ 41.9 µM). `Cc1ccc(N(CC(=O)N2CCN(Cc3ccccc3)CC2)S(C)(=O)=O)cc1C` showed a solubility kinetic of 50.9 µg/mL (≈ 122 µM). Compound `CCN(CC(=O)NCc1cccs1)C(=O)c1cccc(S(=O)(=O)N(C)C)c1` has a solubility kinetic greater than 61.4 µg/mL. With `CC(C)Cn1c(SCC(=O)Nc2ccc(Cl)cc2F)nc(O)cc1=O` the solubility kinetic was greater than 57.9 µg/mL. With `O=C(CN1CCOCC1)Nc1ccc(F)cc1` the solubility kinetic was greater than 35.7 µg/mL. With `CC(=O)c1cccc(NC(=O)c2ccc(OC3CSC3)cc2)c1` the solubility kinetic was less than 0.7 µg/mL. `Cn1c(N)c(C(=O)Nc2cccc(Cl)c2)c(=O)n(C)c1=O` showed a solubility kinetic of 2.5 µg/mL (≈ 8.1 µM). `CC1CN(S(=O)(=O)c2cccc(C(=O)NCc3ccccn3)c2)CC(C)O1` (stereo not drawn) showed a solubility kinetic greater than 58.4 µg/mL. `Oc1ccc(CCC2CCCCN2Cc2nc(C3CC3)no2)cc1` (stereo not drawn) gave a solubility kinetic greater than 49.1 µg/mL. `Cc1cccc(OCC(O)CN2CCOCC2)c1.Cl` (stereo not drawn) gave a solubility kinetic greater than 43.2 µg/mL. In the case of `CCOC(=O)c1c(C)[nH]c(C(=O)NCCN2CCOCC2)c1C`, the solubility kinetic is reported as greater than 48.5 µg/mL.
